In patent publication US8785486B2, “Imidazo[1,2-A]pyridine derivatives and their use as positive allosteric modulators of mGluR2 receptors” (Janssen Pharmaceuticals, Inc., priority 2007, dated 2014):

Key:
[1] = molecular target: T1, human mGluR2 receptor (Homo sapiens, UniProt Q14416); assay: [35S]GTPγS binding assay (PAM assay) using membranes from cells transfected with the human mGluR2 receptor; type: biochemical; conditions: membranes of CHO cells with human mGluR2, glutamate at predetermined EC25 concentration, averages of duplicate values of 11-concentration response curves; for EC50: read-out: GTPγS - hR2 PAM pEC50 (converted)
T1 construct: expressed in transfected cells; host or cells: CHO cells
T1 sequence (Q14416 19-872): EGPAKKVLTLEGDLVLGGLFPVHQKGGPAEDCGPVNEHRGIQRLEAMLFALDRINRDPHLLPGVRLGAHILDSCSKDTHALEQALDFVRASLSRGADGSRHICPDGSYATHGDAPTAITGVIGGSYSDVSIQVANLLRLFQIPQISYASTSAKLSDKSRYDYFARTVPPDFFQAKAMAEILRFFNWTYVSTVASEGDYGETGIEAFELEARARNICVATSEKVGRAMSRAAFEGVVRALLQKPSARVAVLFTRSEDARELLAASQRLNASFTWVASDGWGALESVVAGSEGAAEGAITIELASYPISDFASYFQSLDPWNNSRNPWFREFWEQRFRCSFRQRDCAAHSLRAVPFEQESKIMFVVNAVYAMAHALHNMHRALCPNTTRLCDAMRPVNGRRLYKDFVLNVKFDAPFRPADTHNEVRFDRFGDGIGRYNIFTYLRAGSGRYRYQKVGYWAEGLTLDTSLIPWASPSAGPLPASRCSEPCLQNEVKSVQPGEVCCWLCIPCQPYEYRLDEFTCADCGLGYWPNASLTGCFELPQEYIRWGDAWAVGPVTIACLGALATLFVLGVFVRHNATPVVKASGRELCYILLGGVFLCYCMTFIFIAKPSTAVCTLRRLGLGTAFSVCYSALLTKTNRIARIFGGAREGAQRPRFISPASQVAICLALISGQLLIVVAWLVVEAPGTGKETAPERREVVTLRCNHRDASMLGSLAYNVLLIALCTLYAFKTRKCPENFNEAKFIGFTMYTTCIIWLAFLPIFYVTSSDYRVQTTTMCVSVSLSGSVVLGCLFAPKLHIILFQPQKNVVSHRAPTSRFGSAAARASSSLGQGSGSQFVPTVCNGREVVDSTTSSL
Method: The [^35S]GTPγS binding assay is a functional membrane-based assay used to study G-protein coupled receptor (GPCR) function whereby incorporation of a non-hydrolysable form of GTP, [^35S]GTPγS (guanosine 5′-triphosphate, labelled with […] ^35S), is measured.
CHO-cells were cultured to pre-confluence and stimulated with 5 mM butyrate for 24 hours, prior to washing in PBS, and then collection by scraping in homogenisation buffer (50 mM Tris-HCl buffer, pH 7.4, 4° C.). Cell lysates were homogenized briefly (15 s) using an ultra-turrax homogenizer. The homogenate was centrifuged at 23 500×g for 10 minutes and the supernatant discarded. The pellet was resuspended in 5 mM Tris-HCl, pH 7.4 and centrifuged again (30 000×g, 20 min, 4° C.). The final pellet was resuspended in 50 mM HEPES, pH 7.4 and stored at −80° C. in appropriate aliquots before use. Protein concentration was determined by the Bradford method (Bio-Rad, USA) with bovine serum albumin as standard.
Measurement of mGluR2 positive allosteric modulatory activity of test compounds in membranes containing human mGluR2 was performed using frozen membranes that were thawed and briefly homogenised prior to pre-incubation in 96-well microplates (15 μg/assay well, 30 minutes, 30° C.) in assay buffer (50 mM HEPES pH 7.4, 100 mM NaCl, 3 mM MgCl2, 50 μM GDP, 10 μg/ml saponin,) with increasing concentrations of positive allosteric modulator (from 0.3 nM to 50 μM) and either a minimal pre-determined concentration of glutamate (PAM assay), or no added glutamate. […] After addition of [^35S]GTPγS (0.1 nM, f.c.) to achieve a total reaction volume of 200 μl, microplates were shaken briefly and further incubated to allow [^35S]GTPγS incorporation on activation (30 minutes, 30° C.). The reaction was stopped by rapid vacuum filtration over glass-fibre filter plates (Unifilter 96-well GF/B filter plates, Perkin-Elmer, Downers Grove, USA) microplate using a 96-well plate cell harvester (Filtermate, Perkin-Elmer, USA), and then by washing three times with 300 μl of ice-cold wash buffer (Na2PO4.2H2O 10 mM, NaH2PO4.H2O 10 mM, pH=7.4). Filters were then air-dried, and 40 μl of liquid scintillation cocktail (Microscint-O) was added to each well, and membrane-bound [^35S]GTPγS was measured in a 96-well scintillation plate reader (Top-Count, Perkin-Elmer, USA). Non-specific [^35S]GTPγS binding is determined in the presence of cold 10 μM GTP. Each curve was performed at least once using duplicate sample per data point and at 11 concentrations.
The concentration-response curves of representative compounds of the present invention in the presence of added EC25 of mGluR2 agonist glutamate to determine positive allosteric modulation (PAM), were generated using the Prism GraphPad software (Graph Pad Inc, San Diego, USA). The curves were fitted to a four-parameter logistic equation (Y=Bottom+(Top-Bottom)/(1+10^((Log EC50−X)*Hill Slope) allowing determination of EC50 values. The EC50 is the concentration of a compound that causes a half-maximal potentiation of the glutamate response. This is calculated by subtracting the maximal responses of glutamate in presence of a fully saturating concentration of a positive allosteric modulator from the response of glutamate in absence of a positive allosteric modulator. The concentration producing the half-maximal effect is then calculated as EC50

Row | Structure (SMILES) | GTPγS - hR2 PAM pEC50 [1] | melting point [°C] | EC50 [1] [nM]
1 | N#Cc1c(N2CCN(c3ncccn3)CC2)ccn2c(CC(F)(F)F)cnc12 [Example 2, 7-(4-Pyrimidin-2-yl-piperazin-1-yl)-3-(2,2,2-trifluoro-ethyl)-imidazo[1,2-a]pyridine-8-carbonitrile] | 6.07 | 239 | 
2 | CCCc1cnc2c(C#N)c(N3CCC(c4cccc(C(F)(F)F)c4)CC3)ccn12 [Example 5] |  | 126.8 to 131 | 107
3 | CCCc1cnc2c(C#N)c(N3CCC(c4ccccc4)CC3)ccn12 [Example 6] | 6.81 | 161 | 
4 | CCCc1cnc2c(C#N)c(N3CCC(O)(c4ccccc4)CC3)ccn12 [Example 8] |  | 201.1 | 316
5 | CCCc1cnc2c(C#N)c(-c3ccc(Oc4cccnc4C)cc3)ccn12 [Example 9] |  | 159 | 316
6 | CCCc1cnc2c(C#N)c(-c3ccc(Oc4ccnc(C)c4)cc3)ccn12 [Example 11] |  | 181.8 | 427
7 | CCc1cnc2c(C#N)c(N3CCC(c4ccccc4)CC3)ccn12 [Example 12] | 6.30 | 150 | 
8 | CCCc1cnc2c(C#N)c(N3CCN(c4nc(C)cc(C)n4)CC3)ccn12 [Example 14] | 6.19 | 194.4 | 
9 | CCCc1cnc2c(C#N)c(N3CCN(c4ccccc4)CC3)ccn12 [Example 15] | 6.01 | 148.2 | 
10 | CCc1cnc2c(C#N)c(N3CCC(O)(c4ccccc4)CC3)ccn12 [Example 16] |  | 265 | 1000
11 | CCc1cnc2c(C#N)c(N3CCN(c4nc(C)cc(C)n4)CC3)ccn12 [Example 19] | 5.64 | 231.4 | 
12 | N#Cc1c(N2CCN(c3ccccc3)CC2)ccn2c(-c3ccccc3)cnc12 [Example 20] |  | 220 | 
13 | CCCc1cnc2c(C#N)c(N3CCN(c4ncccn4)CC3)ccn12 [Example 22] |  | 176.4 | 
14 | CCc1cnc2c(C#N)c(-c3ccc(Oc4ccnc(C)c4)c(F)c3)ccn12 [Example 25] |  | 197.6 | 
15 | N#Cc1c(N2CCC(c3ccccc3)CC2)ccn2c(CCCC(F)(F)F)cnc12 [Example 28, 7-(4-Phenyl-piperidin-1-yl)-3-(4,4,4-trifluoro-butyl)-imidazo[1,2-a]pyridine-8-carbonitrile] |  | 128.5 | 132
16 | N#Cc1c(N2CCC(O)(c3ccccc3)CC2)ccn2c(CC(F)(F)F)cnc12 [Example 30] |  | 272.1 | 417
17 | N#Cc1c(N2CCC(c3ccccc3F)CC2)ccn2c(CC(F)(F)F)cnc12 [Example 31] |  | 139.3 | 81.3
18 | N#Cc1c(N2CCC(c3cccc(C(F)(F)F)c3)CC2)ccn2c(CC(F)(F)F)cnc12 [Example 32] |  | > 300 | 81.3
19 | N#Cc1c(N2CCC(c3ccc(F)cc3F)CC2)ccn2c(CC(F)(F)F)cnc12 [Example 33] |  | 186.5 | 61.7
20 | Cc1cc(C)nc(N2CCN(c3ccn4c(CC(F)(F)F)cnc4c3C#N)CC2)n1 [Example 34] | 6.35 | > 300 | 
21 | FC(F)(F)Cc1cnc2c(Cl)c(CN3CCC(F)(c4ccccc4)CC3)ccn12 [Example 35] |  | 154.8 | 603
22 | FC(F)(F)Cc1cnc2c(Cl)c(CN3CCN(c4ncccn4)CC3)ccn12 [Example 36, 8-Chloro-7-(4-pyrimidin-2-yl-piperazin-1-ylmethyl)-3-(2,2,2-trifluoro-ethyl)imidazo[1,2-a]pyridine] |  | 161.4 | 

Row | Structure (SMILES) | GTPγS - hR2 PAM pEC50 [1] | melting point [°C] | EC50 [1] [nM]
23 | Fc1ccc(N2CCN(Cc3ccn4c(CC(F)(F)F)cnc4c3Cl)CC2)c(F)c1 [Example 37] |  | 156.9 | 3020
24 | N#Cc1c(CN2CCC(O)(c3ccc(F)cc3)CC2)ccn2c(CC(F)(F)F)cnc12 [Example 38] |  | 181.2 | 
25 | N#Cc1c(CN2CCC(F)(c3ccccc3)CC2)ccn2c(CC(F)(F)F)cnc12 [Example 40] |  | 145 | 1290
26 | Fc1ccccc1C1CCN(Cc2ccn3c(CC(F)(F)F)cnc3c2Cl)CC1 [Example 41] |  | 161.1 | 437
27 | COc1cccc(C2(O)CCN(Cc3ccn4c(CC(F)(F)F)cnc4c3C#N)CC2)c1 [Example 43] |  | 196 | 
28 | N#Cc1c(CN2CCC(c3ccccc3F)CC2)ccn2c(CC(F)(F)F)cnc12 [Example 44] |  | 152 | 324
29 | Fc1ccccc1N1CCN(Cc2ccn3c(CC(F)(F)F)cnc3c2Cl)CC1 [Example 46] |  | 150.2 | 1740
30 | N#Cc1c(N2CCC(c3ccccc3)CC2)ccn2c(-c3ccc(F)cc3F)cnc12 [Example 47] |  | 267 | 229
31 | N#Cc1c(N2CCC(c3ccccc3)CC2)ccn2c(CCC3CC3)cnc12 [Example 48] |  | 145.4 | 93.3
32 | FC(F)(F)Cc1cnc2c(Cl)c(N3CCC(F)(c4ccccc4)CC3)ccn12 [Example 50, 8-Chloro-7-(4-fluoro-4-phenyl-piperidin-1-yl)-3-(2,2,2-trifluoro-ethyl)-imidazo[1,2-a]pyridine] |  | 220.7 | 195
33 | FC(F)(F)Cc1cnc2c(Cl)c(N3CCC(c4ccccc4)CC3)ccn12 [Example 51, 8-Chloro-7-(4-phenyl-piperidin-1-yl)-3-(2,2,2-trifluoro-ethyl)-imidazo[1,2-a]pyridine] |  | 263.1 | 158
34 | CC(C)(O)c1ccc(C2CCN(c3ccn4c(CC(F)(F)F)cnc4c3C#N)CC2)cc1 [Example 54] |  | 155.4 | 240
35 | N#Cc1c(N2CCC3(CC2)OCc2ccccc23)ccn2c(CC(F)(F)F)cnc12 [Example 58] |  | 212.9 | 97.7
36 | N#Cc1c(N2CCC(O)(c3ccccc3F)CC2)ccn2c(CC(F)(F)F)cnc12 [Example 62] |  | 289.8 | 166
37 | CC(C)(O)c1ccc(C2CCN(c3ccn4c(CC(F)(F)F)cnc4c3Cl)CC2)cc1 [Example 63] |  | 189.3 | 389
38 | Cc1c(N2CCC(c3ccccc3)CC2)ccn2c(CC(F)(F)F)cnc12 [Example 64] |  | 213.9 | 1550
39 | CC(C)(O)c1ccccc1C1CCN(c2ccn3c(CC(F)(F)F)cnc3c2Cl)CC1 [Example 65, 2-(2-{1-[8-Chloro-3-(2,2,2-trifluoro-ethyl)-imidazo[1,2-a]pyridin-7-yl]-piperidin-4-yl}-phenyl)-propan-2-ol] |  | 234.7 | 178
40 | FC(F)(F)Cc1cnc2c(Cl)c(N3CCC4(CC3)OCc3ccccc34)ccn12 [Example 66] |  | 174.4 | 282
41 | CC(C)(O)c1ccccc1C1CCN(c2ccn3c(CC(F)(F)F)cnc3c2C#N)CC1 [Example 67, 7-{4-[2-(1-Hydroxy-1-methyl-ethyl)-phenyl]-piperidin-1-yl}-3-(2,2,2-trifluoro-ethyl)-imidazo[1,2-a]pyridine-8-carbonitrile] |  | 227.5 | 145
42 | N#Cc1c(N2CCC(F)(c3ccccc3)CC2)ccn2c(CC(F)(F)F)cnc12 [Example 68, 7-(4-Fluoro-4-phenyl-piperidin-1-yl)-3-(2,2,2-trifluoro-ethyl)-imidazo[1,2-a]pyridine-8-carbonitrile] |  | 214 | 93.3
43 | FC(F)(F)Cc1cnc2c(Cl)c(CN3CCC4(CC3)OCc3ccccc34)ccn12 [Example 123] |  | 164.2 | 
